Assay: Pharmacokinetic analysis in mice, plasma and brain levels by LC-MS/MS
Type: in vivo
Conditions: mouse, male C57BL/6 mice, 10 mg/kg oral (PO), 0.25-2 h, read-out: B/P ratio (Brain AUC(0-2h)/Plasma AUC(0-2h))
Protocol: Animals: Male, C57BL/6 mice (Jackson Labs, 25-30 g in body weight) are provided by Jackson Laboratories. Up to five mice are housed per cage and are maintained under a 12 hour light/dark cycle with access to food and water ad libitum. All procedures for the handling and use of animals follow the guidelines of the Institutional Animal Care and Use Committee (IACUC) of Columbia University, in accordance with NIH guidelines. Eight week-old mice (N=3/dose level or treatment group) are used in the experiments.
Experimental Treatment: Compounds: Selected Compounds of the Invention are evaluated in the present study. […]
Compound Preparation: Powdered stocks of the test compound(s) are measured and dissolved in 3% 1N HCl, 5% Labrasol and 92% of 5% TPGS in 0.05M Citrate buffer (CB, pH 4.0). […]
Treatment of Animals: Mice (N=3 mice/dose/time point) receive a 10 mg/kg oral (PO) dose of the test compound(s) at time 0. […] Plasma and brain tissue samples are processed and analyzed by the analytical group using LC-MS/MS methods, as described below. […]
Each tube is vortexed, then centrifuged for 20 min at 15000 rpm using a Tomy benchtop centrifuge at 4° C., Standard is an internal standard used for LC-MS/MS quantitation. […]
Each compound is detected and quantified using Multiple Reaction Monitoring (MRM) of positive electrospray mode with a Waters QuattroMicro™ mass spectrometry system. […]

Kp | Structure (SMILES)
≤ 0.05 | CC(C)Cn1c(=O)n(C)c(=O)c2c(Nc3ccccc3)n(Cc3ccc(S(N)(=O)=O)cc3)nc21 [Example 1, 4-((7-Isobutyl-5-methyl-4,6-dioxo-3-(phenylamino)-4,5,6,7-tetrahydropyrazolo[3,4-d]pyrimidin-2-yl)methyl)benzenesulfonamide]
≤ 0.05 | CC(C)Cn1c(=O)n(C)c(=O)c2c(Nc3ccccc3)n(Cc3ccc(C(=O)O)cc3)nc21 [Example 2, 4-((7-isobutyl-5-methyl-4,6-dioxo-3-(phenylamino)-4,5,6,7-tetrahydropyrazolo[3,4-d]pyrimidin-2-yl)methyl)benzoic acid]
